Laboratory results reported in patent US5612480A, “2-chloro and 2-bromo derivatives of 1,5-iminosugars” (priority 1995, dated 1997).
Values after ≈ are worked out from the molar mass of the structure shown. Like-named read-outs stand apart in the source and are kept apart here.

What was measured:
[1] = system: β-Glucosidase (almond); experiment: Beta-glucosidase (almond) inhibition assay, pH 7.4; type: biochemical
Procedure: (§1) Yeast alpha-glucosidase and almond beta-glucosidase activities were measured by a modification of the method of Evans, et al., Phytochemistry 22, 768-770 (1983). The modifications included (1) assay of activities at pH 7.4 in HEPES (N-2-hydroxyethylpiperazine-N'-2-ethanesulfonic acid) buffer, 2) measurement in 96 well microtiter plates and (3) inclusion of 10% DMSO in control and test samples.
(§2) The release of p-nitrophenol from the substrate p-nitrophenylglycoside was measured spectrophotometrically in the presence and absence of test compound. Each assay included a known inhibitor of the enzyme as a standard. IC50 values were determined for compounds which inhibited the enzymes more than 50% at a 1 millimolar concentration.
(§3) To 100 μl 50 mM HEPES buffer, pH 7.4, in a microtiter plate, add 20 μl test compound in DMSO (DMSO alone in control), 40 μl (0.136 units) beta-glucosidase (Sigma) in HEPES buffer and pre-incubate at room temperature for 15 minutes. Add 40 μl 1.25 mM p-nitrophenyl-beta-D-glucopyranoside in HEPES buffer, as substrate and monitor absorbance change at 405 nm in a Biotek EIA Autoreader. Absorption change was measured at 15 to 25 minutes (reaction is linear for at least 30 minutes). Each sample was tested in triplicate. IC50 values were determined from the linear portion of the log concentration vs % inhibition curve obtained from a minimum of 3 points. Castanospermine was used as standard inhibitor.

[2] = system: β-Glucosidase (almond); experiment: Beta-glucosidase (almond) inhibitor assay, pH 4.8; type: biochemical
Procedure: as §1, §2
To 100 μl 50 mM sodium citrate buffer, pH 4.8, in a microtiter plate, add 15 μl test compound in DMSO (DMSO alone in control), 20 μl (0.017 units) beta-glucosidase (Sigma) in citrate buffer and pre-incubate at room temperature for 15 minutes. Add 25 μl 2.50 mM p-nitrophenyl-beta-D-glucopyranoside in citrate buffer, as substrate. Incubate at room temperature 20 minutes (reaction is linear for at least 30 minutes). Add 50 μl 0.4 M NaOH. Read absorption change at 405 nm in a Biotek EIA Autoreader. Each sample was tested in triplicate. IC50 values were determined from the linear portion of the log concentration vs % inhibition curve obtained from a minimum of 3 points. Castanospermine was used as standard inhibitor.

[3] = system: visna virus; experiment: Inhibition of visna virus growth, plaque reduction assay in sheep choroid plexus (SCP) cells (Method A); type: cell-based; settings: Visna-maedi virus; for inhibition at 1000 µM: 1.0 mM
Description: Inhibitory activity against visna virus was shown by a conventional plaque reduction assay. Visna virus, a lentivirus genetically very similar to the AIDS virus, is pathogenic for sheep and goats. See Sonigo et al., Cell 42, 369-382 (1985); Haase, Nature 322, 130-136 (1986). Inhibition of visna virus replication in vitro as a useful model for HIV and its inhibition by test compounds has been described by Frank et al., Antimicrobial Agents and Chemotherapy 31 (9), 1369-1374 (1987).
(§4) Various illustrative compounds synthesized above were tested for inhibition of visna virus in vitro in a plaque reduction assay (Method A) or for inhibition of HIV-1 in a test which measured reduction of cyto-pathogenic effect in virus-infected syncytium-sensitive Leu-3a-positive CEM cells grown in tissue culture (Method B) as follows:
Sheep choroid plexus (SCP) cells were obtained from American Type Culture Collection (ATCC) catalogue number CRL 1700 and were routinely passaged in vitro in Dulbecco's Modified Eagles (DME) medium supplemented with 20% fetal bovine serum (FBS). SCP cells were passaged once per week at a 1:2 or 1:3 split ratio. Visna was titrated by plaque assay in six-well plates. Virus pools were stored at -70° C.
SCP cells were cultured in 6-well plates to confluence. Wells were washed two times with serum free Minimal Essential Medium (MEM) to remove FBS. 0.2 ml of virus was added per well in MEM supplemented with 4 mM glutamine and gentamycin. After 1 hour adsorption, the virus was aspirated from each well. The appropriate concentration of each compound in 5 ml of Medium 199 (M-199) supplemented with 2% lamb serum, 4 mM glutamine, 0.5% agarose and gentamycin was added to each well. Cultures were incubated at 37° C. in a humidified 5% CO2 incubator for 3-4 weeks. To terminate the test, cultures were fixed in 10% formalin, the agar removed, the monolayers stained with 1% crystal violet and plaques counted. Each compound concentration was run in triplicate. […] 0 is no toxicity observed while 4 is total lysing of the cell monolayer. […]
Control wells without virus were completed to determine the toxicity of compounds.

[4] = target: T1, α-Glucosidase (yeast) (Saccharomyces cerevisiae, UniProt P53341); experiment: Alpha-glucosidase (yeast) inhibition assay, pH 7.4; type: biochemical; settings: pH 7.4, read-out: Percent inhibition of α-glucosidase (yeast)
T1 construct: purchased Sigma
T1 sequence (P53341 whole entry): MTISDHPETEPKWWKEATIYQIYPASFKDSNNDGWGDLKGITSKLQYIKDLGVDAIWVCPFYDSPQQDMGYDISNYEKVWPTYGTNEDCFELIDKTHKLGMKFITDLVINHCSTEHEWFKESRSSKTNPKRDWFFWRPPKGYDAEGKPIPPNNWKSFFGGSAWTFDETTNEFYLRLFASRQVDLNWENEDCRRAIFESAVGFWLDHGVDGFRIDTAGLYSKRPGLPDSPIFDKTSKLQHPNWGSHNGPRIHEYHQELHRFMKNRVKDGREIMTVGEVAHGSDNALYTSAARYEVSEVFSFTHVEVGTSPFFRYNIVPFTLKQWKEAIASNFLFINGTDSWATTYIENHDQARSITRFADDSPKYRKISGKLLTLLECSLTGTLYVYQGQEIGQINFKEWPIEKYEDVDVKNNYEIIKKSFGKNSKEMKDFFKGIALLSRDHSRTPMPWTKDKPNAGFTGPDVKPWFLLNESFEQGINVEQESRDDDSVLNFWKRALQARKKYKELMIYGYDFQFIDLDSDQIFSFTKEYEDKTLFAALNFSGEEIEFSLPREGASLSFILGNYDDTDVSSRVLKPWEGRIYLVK
Procedure: as §1, §2
as §3, with “(0.013” for “(0.136”, “yeast alpha-glucosidase” for “beta-glucosidase”, “p-nitrophenyl-alpha-D-glucopyranoside (Sigma)” for “p-nitrophenyl-beta-D-glucopyranoside”, “substrate,” for “substrate”, “was” for “is”, “Deoxynojirimycin” for “Castanospermine”

[5] = system: α-glucosidase; settings: 0.1 mM; according to U.S. Pat. No. 5,025,021; cited from earlier work
[6] = system: HIV-1; experiment: Anti-HIV activity: inhibition of HIV-1 induced cytopathic effect in CEM cells, MTT (Method B); type: cell-based, strain HTVL-IIIB; settings: Human immunodeficiency virus 1, CCRF-CEM; for inhibition at 10 µg/mL: 10 μg/mL; for inhibition at 100 µg/mL: 100 μg/mL
Procedure: (§5) Inhibitory activity against HIV-1 was shown by tests involving plating of susceptible human host cells which are syncytium-sensitive with and without virus in microculture plates, adding various concentrations of the test compound, incubating the plates for 7 to 9 days (during which time infected, non-drug treated control cells are largely or totally destroyed by the virus), and then determining the remaining number of viable cells with a colorometric endpoint.
as §4
Tissue culture plates were incubated at 37° C. in a humidified, 5% CO2 atmosphere and observed microscopically for toxicity and/or cytopathogenic effect (CPE). At 1 hour prior to infection each test article was prepared from the frozen stock, and a 20 μl volume of each dilution (prepared as a 10 X concentration) was added to the appropriate wells of both infected and uninfected cells.
Assays were done in 96-well tissue culture plates. CEM cells were treated with polybrene at a concentration of 2 μg/ml, and an 80 μl volume of cells (1×10^4 cells) was dispensed into each well. A 100 μl volume of each test article dilution (prepared as a 2 X concentration) was added to 5 wells of cells, and the cells were incubated at 37° C. for 1 hour. A frozen culture of HIV-1, strain HTVL-IIIB, was diluted in culture medium to a concentration of 5×10^4 TCID50 per ml, and a 20 μl volume (containing 10^3 TCID50 of virus) was added to 3 of the wells for each test article concentration. […] A 20 μl volume of normal culture medium was added to the remaining wells to allow evaluation of cytotoxicity. Each plate contained 6 wells of untreated, uninfected, cell control samples and 6 wells of untreated, infected, virus control samples.
On the 9th day post-infection, the cells in each well were resuspended and a 100 μl sample of each cell suspension was removed for use in an MTT assay. A 20 μl volume of a 5 mg/ml solution of 3-(4,5-dimethylthiazol-2-yl)-2,5-diphenyltetrazolium bromide (MTT) was added to each 100 μl cell suspension, and the cells were incubated at 37° C. in 5% CO2 for 4 hours. […] A 100 μl volume of a solution of 10% sodium dodecyl sulfate in 0.01 N hydrochloric acid was added to each sample, and the samples were incubated overnight. The absorbance at 590 nm was determined for each sample using a Molecular Devices Vmax microplate reader. This assay detects drug-induced suppression of viral CPE, as well as drug cytotoxicity, by measuring the generation of MTT-formazan by surviving cells.

[7] = system: β-glucosidase; settings: 0.1 mM; according to U.S. Pat. No. 5,025,021; cited from earlier work
[8] = Cytotoxicity in CEM cells (TD50) in the standard CEM cell assay for HIV inhibition; type: cell-based; settings: human
Procedure: as §5
This is illustrated by a side-by-side comparison between the 2-chloro-N-butyl-DNJ of the present invention and the corresponding 2-fluoro-N-butyl-DNJ disclosed in U.S Pat. No. 5,025,021. […] Moreover, the foregoing illustrative 2-chloro derivative also is a better enzyme inhibitor than the corresponding 2-fluoro derivative. The 2-chloro derivative inhibits α-glucosidase 46% and β-glucosidase 32% at 0.1 mM, whereas the corresponding 2-fluoro derivative inhibits these enzymes at only 8% and 4% at the same concentration according to U.S. Pat. No. 5,025,021.
Assays were done in 96-well tissue culture plates. […]
On the 9th day post-infection, the cells in each well were resuspended and a 100 μl sample of each cell suspension was removed for use in an MTT assay. […] The absorbance at 590 nm was determined for each sample using a Molecular Devices Vmax microplate reader. […]

[9] = system: α-glucosidase; experiment: α-glucosidase inhibition, conventional in vitro assay (p-nitrophenol release); type: biochemical; settings: 0.1 mM
Procedure: (§6) Inhibitory activity against α- and β-glucosidase enzymes was determined by conventional in vitro assays for these enzymes as described in U.S. Pat. No. 4,973,602. These assays involve spectrophotometric measurement of the release of p-nitrophenol from the substrate p-nitrophenyl-glycoside in the presence and absence of the test compound and comparison against a control standard that contains a known inhibitor of the enzyme.

[10] = system: β-glucosidase; experiment: β-glucosidase inhibition, conventional in vitro assay (p-nitrophenol release); type: biochemical; settings: 0.1 mM
Procedure: as §6

[11] = standard CEM cell assay, side-by-side comparison

Percent inhibition of β-glucosidase (almond) ([1]; 100 μM) [%]	Percent inhibition of β-glucosidase (almond) ([1]; 1000 μM) [%]	Percent inhibition of β-glucosidase (almond) ([2]; 100 μM) [%]	Percent inhibition of β-glucosidase (almond) ([2]; 1000 μM) [%]	inhibition at 100 µM ([4]; 100 μM) [%]	inhibition at 1000 µM ([4]; 1000 μM) [%]	SMILES	inhibition at 1000 µM [3] [%]	% inhibition of α-glucosidase [5] [%]	inhibition at 10 µg/mL [6, 11] [%]	inhibition at 100 µg/mL [6, 11] [%]	inhibition at 500 µg/mL ([6]; 500 μg/mL, standard CEM cell assay, side-by-side comparison, read-out: % inhibition of HIV) [%]	% inhibition of β-glucosidase [7] [%]	CC50 [8] [mg/L]	EC50 ([6]; CEM cells, Table 2, read-out: Anti-HIV activity, inhibition of virus induced cytopathic effect, EC50) [mg/L]	EC50 ([6]; standard CEM cell assay, side-by-side comparison, read-out: EC50, HIV inhibition, calculated by linear regression) [mg/L]	inhibition at 10 µM ([3]; 0.01 mM) [%]	inhibition at 100 µM ([3]; 0.1 mM) [%]	% inhibition of α-glucosidase [9] [%]	% inhibition of β-glucosidase [10] [%]
-2.4	0.3	4.3	3.1	11	-6.8	CCCCNC(=O)O[C@H]1CN(CCCC)[C@H](CO)[C@@H](O)[C@@H]1O [Example 36]	21	–	–	–	–	–	–	–	–	–	–	–	–
–	–	–	–	–	–	CCCCN1C[C@H](F)[C@@H](O)[C@H](O)[C@H]1CO [2-fluoro-N-butyl-DNJ, reference compound]	–	8	0	0	3	4	–	–	–	–	–	–	–
–	–	–	–	–	–	CCCCN1C[C@H](Cl)[C@@H](O)[C@H](O)[C@H]1CO [Example 27, 1,5-(Butylimino)-2-chloro-1,2,5-trideoxy-D-glucitol]	99	–	29.3	62.5	–	–	187 (≈ 787 µM)	43 (≈ 181 µM)	43 (≈ 181 µM)	39	38	46	32
